“And” between values parts separate entries of the source, which are not always exact repeats. Equal entries are not always repeated. Where two headings read alike, the source gives them in different places.

One data set deals with rats. To be noted: oral; cited from earlier work.
The test system of another data set is skin. The experiment in a line: Skin weight test, 10 days of topical treatment in the rat. The following applies: for Wet skin weight, Treated, Decrease / Wet skin weight, Untreated, Decrease: percent decrease of the control; for Wet skin weight, Treated, Decrease: treated flank; for Wet skin weight, Untreated, Decrease: untreated flank; for Body wt. gain / Thymus wt. / Wet skin weight, Treated / Wet skin weight, Untreated: topical 0.1%, 10 days; for Body wt. gain / Thymus wt.: daily dose 30 μg; for Thymus wt. / Wet skin weight, Treated / Wet skin weight, Untreated: mean ± S.E.; for Wet skin weight, Treated: treated left flank; for Wet skin weight, Treated / Wet skin weight, Untreated: 30 μg daily; for Wet skin weight, Untreated: untreated right flank. It counts as in vivo, Male Sprague-Dawley rats. On the procedure: Male Sprague-Dawley rats, weighing about 210 g, were lightly anesthetized with ether, shaved and marked in three areas on each flank with intradermally injected blue ink. […] Treated control animals received daily topical administration of the vehicle (DMF) alone. Solvent and test compound solutions (10 μL) were applied once daily for 10 consecutive days, with […] necessary. On the eleventh day, the animals were sacrificed, their skins were removed and 16 mm diameter plugs were punched out from each area. The plugs were scraped carefully to remove subcutaneous fat and muscle, then they were blotted on filter paper and weighed. Skin atrophy is a known side effect associated with topically applied anti-inflammatory steroids.

Another data set concerns thymi. Details: species or system male Sprague-Dawley rats. To be noted: rat, in vivo, sc. The method, then: Several further studies were undertaken to determine the effects of a selected compound of the invention and prior art steroids on thymi weights in rats when the drugs were systemically administered. In each of these studies, male Sprague-Dawley rats were used. The test compounds were suspended in 0.5% CMC (carboxymethylcellulose) and injected subcutaneously once daily for three days. On the fifth day (48 hours following the last treatment), the animals were sacrificed and the thymi weights were recorded. Body weight gains were measured 24 hours after the last treatment. From the test results, the TED40 's (thymolytic effective doses, that is, doses required to achieve 40% inhibition of thymi weight) and relative potencies of a representative compound of the invention and reference steroids were calculated. […] It is evident that the higher the inhibition of thymus activity at a given dose, the more toxic the compound is.

A further data set has as its system granuloma / thymolysis. Description: Comparison of local effect and systemic side-effects (therapeutic index). It is filed as in vivo, rat. The following applies: granuloma relative potency / thymolysis relative potency. The method, then:
The test compound was dissolved in acetone and aliquots of varying concentrations were injected into cotton pellets. The pellets were dried and then one pellet was implanted beneath the skin of each test rat. Six days later, the animals were sacrificed and the granulation tissue (granuloma) which formed in and around the implanted pellet was removed, dried and weighed. In addition, the thymi and adrenals were removed and weighed.
Several further studies were undertaken to determine the effects of a selected compound of the invention and prior art steroids on thymi weights in rats when the drugs were systemically administered. In each of these studies, male Sprague-Dawley rats were used. The test compounds were suspended in 0.5% CMC (carboxymethylcellulose) and injected subcutaneously once daily for three days. On the fifth day (48 hours following the last treatment), the animals were sacrificed and the thymi weights were recorded. Body weight gains were measured 24 hours after the last treatment.
The ED50 's calculated for the local cotton pellet granuloma assay and the TED40 's calculated on the basis of thymus inhibition testing as described above were used to arrive at relative potency and a therapeutic index for a representative species of the invention as compared to prior art steroids.

Data set [1] concerns forearms of a human volunteer. Description: Further human vasoconstriction testing, Method 1. It counts as in vivo. On the procedure: The mixtures, in 50 μL amounts, were applied to circular patches (8 mm diameter). After evaporation of ethanol, the patches were applied to the forearms of a human volunteer, and covered with a water impervious film for 3 hr. The intensity of vasoconstriction (scale 0-4) was judged at various time intervals after removal of the patches. The grading scale was as follows: 0, normal skin; 1, slight pallor of indistinct outline; 2, pallor with at least two corners outlined; 3, even pallor with a clear outline of the application sites; 4, very intense pallor. The skin tests (2-4 tests on each compound) were performed on the same person.

In data set [2] the target is T1, rat lung glucocorticoid receptor (Rattus norvegicus, UniProt P06536).
T1 construct: Immediately after resection of the lungs, the tissue was frozen in ice; The cytosol was prepared; from tissue; host or cells: lung cytosol of adrenalectomized male Sprague-Dawley rats
T1 sequence (P06536 1-795): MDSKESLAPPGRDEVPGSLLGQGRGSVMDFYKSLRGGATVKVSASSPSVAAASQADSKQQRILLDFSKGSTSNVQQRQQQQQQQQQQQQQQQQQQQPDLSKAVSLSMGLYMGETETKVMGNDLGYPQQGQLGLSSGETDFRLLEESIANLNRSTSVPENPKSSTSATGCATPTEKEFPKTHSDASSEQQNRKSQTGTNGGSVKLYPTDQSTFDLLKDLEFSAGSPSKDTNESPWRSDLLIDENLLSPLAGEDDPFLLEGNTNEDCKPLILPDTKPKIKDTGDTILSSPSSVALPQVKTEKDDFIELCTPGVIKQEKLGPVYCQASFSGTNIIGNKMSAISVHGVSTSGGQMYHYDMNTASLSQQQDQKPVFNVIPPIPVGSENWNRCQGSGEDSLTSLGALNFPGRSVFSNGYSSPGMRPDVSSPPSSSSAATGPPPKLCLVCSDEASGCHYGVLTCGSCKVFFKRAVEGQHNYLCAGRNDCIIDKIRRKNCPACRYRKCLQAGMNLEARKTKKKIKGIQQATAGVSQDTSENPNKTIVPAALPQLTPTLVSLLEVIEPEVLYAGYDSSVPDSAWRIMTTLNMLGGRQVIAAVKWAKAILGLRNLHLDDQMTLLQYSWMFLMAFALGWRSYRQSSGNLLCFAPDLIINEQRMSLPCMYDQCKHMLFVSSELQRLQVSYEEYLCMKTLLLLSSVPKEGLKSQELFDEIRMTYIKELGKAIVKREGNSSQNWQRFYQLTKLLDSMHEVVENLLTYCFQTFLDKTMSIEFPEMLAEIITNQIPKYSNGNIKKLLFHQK
To be noted: previously found, cited from earlier work.

Data set [3] deals with forearm of a human volunteer. The experiment in a line: Human vasoconstriction test. It counts as in vivo. Details: key: 0 = normal skin, 4 = very intense pallor. To be noted: 10 mM. The method, then:
Test compounds (10 mM) were dissolved in ethanol/propylene glycol (9/1) solution, and 50 μL of the mixtures were applied to circular patches, 8 mm in diameter. After ethanol evaporation, the patches were applied to the forearm of a human volunteer, and covered with a water impervious film for 3 hours. The intensity of vasoconstriction was judged 1, 8, 17 and 24 hours after the patches were removed.
The grading scale for the vasoconstriction activity was as follows: 0, normal skin; 1, slight pallor of indistinct outline; 2, pallor with at least two corners outlined; 3, even pallor with a clear outline of the application sites; 4, very intense pallor.

On to `CC(=O)O` [Acetic acid], for which the median lethal dose (LD50) in the data set with rats is 3530 mg/kg.

Consider `CCC(=O)O[C@]1(C(=O)CCl)[C@@H](C)C[C@H]2[C@@H]3CCC4=CC(=O)C=C[C@]4(C)[C@@]3(F)[C@@H](O)C[C@@]21C` [Clobetasol 17-propionate], for which, in the data set on skin, the “Wet skin weight, Treated, Decrease” value was found to be 21.2%; the “Wet skin weight, Untreated, Decrease” value was 19.2%; the Body wt. gain amounted to 24.2 ± 2.3 g; the Thymus wt. is given as 190 ± 14 mg. In addition, in the data set with skin, the “Wet skin weight, Treated” value worked out at 78.2 mg and the “Wet skin weight, Untreated” value was 67.6 ± 6.2 mg. Further, the “Thymolysis, Relative Potency at ED40 Level (b)” value with thymi is given as 1927. Besides, the “Therapeutic Index (a/b)” value in the data set with granuloma / thymolysis stood at 1.54.

For `CCCC(=O)O[C@]1(C(=O)CO)CC[C@H]2[C@@H]3CCC4=CC(=O)CC[C@]4(C)[C@H]3[C@@H](O)C[C@@]21C` [Hydrocortisone 17-butyrate], in the data set on skin, the “Wet skin weight, Treated, Decrease” value is recorded as 13.1%; the “Wet skin weight, Untreated, Decrease” value was 14.0%; the Body wt. gain was 45.7 ± 10.6 g; the Thymus wt. worked out at 540 ± 61 mg. In the data set with skin, the “Wet skin weight, Treated” value is recorded as 86.3 ± 1.5 mg and the “Wet skin weight, Untreated” value amounted to 72.0 ± 4.7 mg. The “Thymolysis, Relative Potency at ED40 Level (b)” value with thymi amounted to 57. Moreover, the “Therapeutic Index (a/b)” value in the data set with granuloma / thymolysis came to 1.23.

Consider `CCOC(=O)O[C@]1(C(=O)OCCl)CC[C@H]2[C@@H]3CCC4=CC(=O)C=C[C@]4(C)[C@H]3[C@@H](O)C[C@@]21C` [Loteprednol etabonate, chloromethyl 17α-ethoxycarbonyloxy-11β-hydroxyandrosta-1,4-dien-3-one-17β-carboxylate, reference compound], for which the Vasoconstriction activity was 0 in data set [1] (3 Hours, 0.01 mM); 0 in data set [1] (3 Hours, 0.05 mM); 1 in data set [1] (3 Hours, 0.1 mM); 2 in data set [1] (3 Hours, 0.5 mM); 3 in data set [1] (3 Hours, 1 mM); 3 in data set [1] (3 Hours, 5 mM). The Vasoconstriction activity in data set [1] (3 Hours, 10 mM) is 4; in data set [1] (20 Hours, 0.01 mM), 0; in data set [1] (20 Hours, 0.05 mM) it was 0; in data set [1] (20 Hours, 0.1 mM), 0; in data set [1] (20 Hours, 0.5 mM) it was 0; in data set [1] (20 Hours, 1 mM), 0. For the same molecule, the Vasoconstriction activity is 1 in data set [1] (20 Hours, 5 mM); 2 in data set [1] (20 Hours, 10 mM); 2 in data set [3] (1 hour after patch removal); 3 and 2 in data set [3] (8 hours after patch removal); 2 in data set [3] (17 hours after patch removal); 2 and 1 in data set [3] (24 hours after patch removal). Also, the RBA in data set [2] (with Δ1-cortienic acid) was 420; in data set [2] (without Δ1-cortienic acid), 152.

In the case of `CCC(=O)O` [propionic acid], the median lethal dose (LD50) with rats is 4290 mg/kg.

By LD50 is commonly meant the dose expected to kill half of the subjects tested.
